Where “and” joins values, the source holds several entries; their conditions need not be identical. Equal entries are not always repeated. Toxic doses and inconclusive results are not listed.

The test relates to L1210 leukemia ip in BDF1 mice, survival T/C. In words: NCI In Vivo Anticancer Drug Screen. Data for tumor model L1210 Leukemia (intraperitoneal) in B6D2F1 (BDF1) mice. Conditions: endpoint: mean survival time, higher = longer survival. In short, it runs like this: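 Mice bearing the transplanted tumor received compound or vehicle. Survival of the treated group was divided by that of the vehicle-treated control group to give the ratio.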

[1] abbreviates: dose: 100.0 mg/kg/injection, schedule: Q01DX001 (ip), vehicle: saline.
The mark [2] stands for this setting: dose: 200.0 mg/kg/injection, schedule: Q01DX001 (ip), vehicle: saline.
[3] abbreviates: dose: 400.0 mg/kg/injection, schedule: Q01DX001 (ip), vehicle: saline.
[4] abbreviates: dose: 100.0 mg/kg/injection, schedule: Q01DX009 (ip), vehicle: Klucel (hydroxypropylcellulose) (HPC).
Setting [5] is: dose: 100.0 mg/kg/injection, schedule: Q04DX002 (ip), vehicle: Klucel (hydroxypropylcellulose) (HPC).
Setting [6] is: dose: 200.0 mg/kg/injection, schedule: Q01DX009 (ip), vehicle: Klucel (hydroxypropylcellulose) (HPC).
The mark [7] stands for this setting: dose: 200.0 mg/kg/injection, schedule: Q04DX002 (ip), vehicle: Klucel (hydroxypropylcellulose) (HPC).
[8] abbreviates: dose: 400.0 mg/kg/injection, schedule: Q01DX009 (ip), vehicle: Klucel (hydroxypropylcellulose) (HPC).
[9] abbreviates: dose: 400.0 mg/kg/injection, schedule: Q04DX002 (ip), vehicle: Klucel (hydroxypropylcellulose) (HPC).

Turning to `O=[N+]([O-])c1ccc(O)c(Br)c1`, the T/C was 95 % of control (dose: 6.25 mg/kg/injection, schedule: Q01DX009 (ip), vehicle: saline with Tween-80); 101 % of control (dose: 12.5 mg/kg/injection, schedule: Q01DX009 (ip), vehicle: saline with Tween-80); 90 % of control (dose: 25.0 mg/kg/injection, schedule: Q01DX009 (ip), vehicle: carboxymethylcellulose (CMC)); 93 % of control (dose: 25.0 mg/kg/injection, schedule: Q01DX009 (ip), vehicle: saline with Tween-80).
`CCCCCCCCCCCCCC(=O)OC1C(CO)OC2C1Oc1nc(=N)ccn12` (stereo not given): the T/C is, setting by setting: (dose: 25.0 mg/kg/injection, schedule: Q01DX009 (ip), vehicle: other) 152 % of control; (dose: 50.0 mg/kg/injection, schedule: Q01DX009 (ip), vehicle: other) 171 % of control; (dose: 100.0 mg/kg/injection, schedule: Q01DX009 (ip), vehicle: other) 214 % of control; (dose: 200.0 mg/kg/injection, schedule: Q01DX009 (ip), vehicle: other) 179 % of control.
On to `Cc1noc(/N=C/c2cccc(Cl)c2)c1C`, for which the T/C by setting is: under setting [1], 101 % of control; under setting [2], 105 % of control; under setting [3], 101 % of control.
As to `CCN(CC)C(=O)Cn1ccc(N)nc1=O`, the T/C is 115 % of control (dose: 100.0 mg/kg/injection, schedule: Q01DX009 (ip), vehicle: saline); 100 % of control (dose: 100.0 mg/kg/injection, schedule: Q04DX003 (ip), vehicle: saline); 98 % of control (dose: 200.0 mg/kg/injection, schedule: Q01DX009 (ip), vehicle: saline); 100 % of control (dose: 200.0 mg/kg/injection, schedule: Q04DX003 (ip), vehicle: saline); 97 % of control (dose: 400.0 mg/kg/injection, schedule: Q01DX009 (ip), vehicle: saline); 102 % of control (dose: 400.0 mg/kg/injection, schedule: Q04DX003 (ip), vehicle: saline).
On to `O=C(O)CC(C(=O)O)c1ccccc1O` (stereo not given), for which the T/C is 95 % of control (dose: 25.0 mg/kg/injection, schedule: Q04DX003 (ip), vehicle: Klucel (hydroxypropylcellulose) (HPC)); 100 % of control (dose: 50.0 mg/kg/injection, schedule: Q01DX001 (ip), vehicle: saline); 93 % of control (dose: 50.0 mg/kg/injection, schedule: Q04DX003 (ip), vehicle: Klucel (hydroxypropylcellulose) (HPC)); 96 % of control under setting [1]; 90 % of control under setting [2].
For `O=C(O)c1nc2ccccc2[nH]c1=O`, the T/C is 88 % of control (dose: 100.0 mg/kg/injection, schedule: Q04DX003 (ip), vehicle: Klucel (hydroxypropylcellulose) (HPC)); 92 % of control (dose: 200.0 mg/kg/injection, schedule: Q04DX003 (ip), vehicle: Klucel (hydroxypropylcellulose) (HPC)); 87 % of control (dose: 400.0 mg/kg/injection, schedule: Q04DX003 (ip), vehicle: Klucel (hydroxypropylcellulose) (HPC)).
As to `ClC(Cl)(Cl)C(c1cccs1)c1cccs1`, the T/C is 94 % of control under setting [4]; 93 % of control under setting [5]; 94 % of control under setting [6]; 96 % of control under setting [7]; 94 % of control under setting [8]; 96 % of control under setting [9].
In the case of `BrC1C2CC(c3ccccc32)C1Br` (stereo not given), the T/C was 101 % of control (dose: 100.0 mg/kg/injection, schedule: Q01DX009 (ip), vehicle: saline with Tween-80); 94 % of control (dose: 100.0 mg/kg/injection, schedule: Q04DX003 (ip), vehicle: saline with Tween-80); 91 % of control (dose: 200.0 mg/kg/injection, schedule: Q01DX009 (ip), vehicle: saline with Tween-80); 93 % of control (dose: 200.0 mg/kg/injection, schedule: Q04DX003 (ip), vehicle: saline with Tween-80); 98 % of control (dose: 400.0 mg/kg/injection, schedule: Q01DX009 (ip), vehicle: saline with Tween-80); 95 % of control (dose: 400.0 mg/kg/injection, schedule: Q04DX003 (ip), vehicle: saline with Tween-80).
On to `O=C(OCCCCCCCCOC(=O)c1cccc([N+](=O)[O-])c1)c1cccc([N+](=O)[O-])c1`, for which the T/C runs as follows: (dose: 100.0 mg/kg/injection, schedule: Q01DX001 (ip), vehicle: other) 102 % of control; (dose: 200.0 mg/kg/injection, schedule: Q01DX001 (ip), vehicle: other) 101 % of control; (dose: 400.0 mg/kg/injection, schedule: Q01DX001 (ip), vehicle: other) 96 % of control.
Consider `NNC(=O)C1CC12CC2` (stereo not given), for which the T/C under setting [1] was 106 % of control and 109 % of control; the T/C under setting [2] was 103 % of control.
For `C/C(=N\OC(=O)c1ccc([N+](=O)[O-])cc1)C(C)(C)C`, the T/C by setting is: under setting [5], 88 % of control; under setting [7], 100 % of control; under setting [9], 96 % of control.
For the molecule `O=C(CN1C(=O)c2ccccc2C1=O)c1cccc(Br)c1`, the T/C is 95 % of control under setting [1], 104 % of control under setting [2] and 103 % of control under setting [3].
Turning to `O=C(Nc1ccc(CCO)cc1)Nc1cc(C(F)(F)F)ccc1Cl`, the T/C reads like this: under setting [4], 100 % of control; under setting [6], 95 % of control.
Regarding `Nc1c(F)c(F)c(N)c(F)c1F`, the T/C is 93 % of control (dose: 100.0 mg/kg/injection, schedule: Q01DX001 (ip), vehicle: acetone) and 89 % of control (dose: 400.0 mg/kg/injection, schedule: Q01DX001 (ip), vehicle: acetone).
Turning to `C=[CH][Sn]([CH]=C)([CH]=C)[O]C(C)=O`, the T/C was 103 % of control (dose: 1.56 mg/kg/injection, schedule: Q01DX009 (ip), vehicle: Klucel (hydroxypropylcellulose) (HPC)); 94 % of control (dose: 3.12 mg/kg/injection, schedule: Q01DX009 (ip), vehicle: Klucel (hydroxypropylcellulose) (HPC)); 98 % of control (dose: 6.25 mg/kg/injection, schedule: Q01DX009 (ip), vehicle: Klucel (hydroxypropylcellulose) (HPC)); 103 % of control (dose: 12.5 mg/kg/injection, schedule: Q01DX009 (ip), vehicle: Klucel (hydroxypropylcellulose) (HPC)); 102 % of control (dose: 12.5 mg/kg/injection, schedule: Q04DX002 (ip), vehicle: Klucel (hydroxypropylcellulose) (HPC)); 105 % of control (dose: 25.0 mg/kg/injection, schedule: Q04DX002 (ip), vehicle: Klucel (hydroxypropylcellulose) (HPC)).
With `CC(=O)CC(C)=Nc1cccc(Cl)c1`, the T/C is, setting by setting: (dose: 100.0 mg/kg/injection, schedule: Q01DX001 (ip), vehicle: Klucel (hydroxypropylcellulose) (HPC)) 106 % of control; under setting [4], 92 % of control; (dose: 200.0 mg/kg/injection, schedule: Q01DX001 (ip), vehicle: Klucel (hydroxypropylcellulose) (HPC)) 103 % of control; under setting [6], 108 % of control; (dose: 400.0 mg/kg/injection, schedule: Q01DX001 (ip), vehicle: Klucel (hydroxypropylcellulose) (HPC)) 100 % of control; under setting [8], 94 % of control.
As for `CC(C)(C)OC(=O)N1C2CCC(C2)N1C(=O)OC(C)(C)C`, the T/C was 100 % of control (dose: 100.0 mg/kg/injection, schedule: Q01DX001 (ip), vehicle: carboxymethylcellulose (CMC)); 96 % of control (dose: 200.0 mg/kg/injection, schedule: Q01DX001 (ip), vehicle: carboxymethylcellulose (CMC)); 96 % of control (dose: 400.0 mg/kg/injection, schedule: Q01DX001 (ip), vehicle: carboxymethylcellulose (CMC)).
`NC(=S)NN=C1CCCCC1`: the T/C is, setting by setting: (dose: 5.0 mg/kg/injection, schedule: Q01DX001 (ip), vehicle: carboxymethylcellulose (CMC)) 96 % of control; (dose: 10.0 mg/kg/injection, schedule: Q01DX001 (ip), vehicle: carboxymethylcellulose (CMC)) 96 % of control; (dose: 20.0 mg/kg/injection, schedule: Q01DX001 (ip), vehicle: carboxymethylcellulose (CMC)) 107 % of control.
With `C/C=C/CC1(CCCC)C(=O)NC(=O)NC1=O`, the T/C runs as follows: (dose: 75.0 mg/kg/injection, schedule: Q01DX001 (ip), vehicle: saline) 106 % of control; (dose: 150.0 mg/kg/injection, schedule: Q01DX001 (ip), vehicle: saline) 102 % of control.
Turning to `COC(=O)C(Br)(C(=O)OC)C(c1ccccc1)c1ccccc1`, the T/C by setting is: (dose: 100.0 mg/kg/injection, schedule: Q04DX002 (ip), vehicle: other) 90 % of control; (dose: 200.0 mg/kg/injection, schedule: Q04DX002 (ip), vehicle: other) 86 % of control; (dose: 400.0 mg/kg/injection, schedule: Q04DX002 (ip), vehicle: other) 93 % of control.
